Like-named read-outs stand apart in the source and are kept apart here.

As usually defined, the IC50 is the concentration that inhibits the measured activity by half. In general, Ki refers to the equilibrium dissociation constant of an inhibitor or competing ligand from its target.

In data set [1] the target is T1, DNA-PK (Homo sapiens (Human), UniProt P78527). The data set is described as follows: DNA-PK assay (biochemical), flashplate 33P-ATP kinase assay. In a few lines: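 Radiometric kinase reaction in streptavidin-coated flashplates, stopped with 200 mM EDTA, then 30 min room-temperature incubation and saline washes.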
The target of data set [2] is T2, Kv11.1 (hERG) (Homo sapiens (Human), UniProt Q12809).
T2 sequence (Q12809 whole entry): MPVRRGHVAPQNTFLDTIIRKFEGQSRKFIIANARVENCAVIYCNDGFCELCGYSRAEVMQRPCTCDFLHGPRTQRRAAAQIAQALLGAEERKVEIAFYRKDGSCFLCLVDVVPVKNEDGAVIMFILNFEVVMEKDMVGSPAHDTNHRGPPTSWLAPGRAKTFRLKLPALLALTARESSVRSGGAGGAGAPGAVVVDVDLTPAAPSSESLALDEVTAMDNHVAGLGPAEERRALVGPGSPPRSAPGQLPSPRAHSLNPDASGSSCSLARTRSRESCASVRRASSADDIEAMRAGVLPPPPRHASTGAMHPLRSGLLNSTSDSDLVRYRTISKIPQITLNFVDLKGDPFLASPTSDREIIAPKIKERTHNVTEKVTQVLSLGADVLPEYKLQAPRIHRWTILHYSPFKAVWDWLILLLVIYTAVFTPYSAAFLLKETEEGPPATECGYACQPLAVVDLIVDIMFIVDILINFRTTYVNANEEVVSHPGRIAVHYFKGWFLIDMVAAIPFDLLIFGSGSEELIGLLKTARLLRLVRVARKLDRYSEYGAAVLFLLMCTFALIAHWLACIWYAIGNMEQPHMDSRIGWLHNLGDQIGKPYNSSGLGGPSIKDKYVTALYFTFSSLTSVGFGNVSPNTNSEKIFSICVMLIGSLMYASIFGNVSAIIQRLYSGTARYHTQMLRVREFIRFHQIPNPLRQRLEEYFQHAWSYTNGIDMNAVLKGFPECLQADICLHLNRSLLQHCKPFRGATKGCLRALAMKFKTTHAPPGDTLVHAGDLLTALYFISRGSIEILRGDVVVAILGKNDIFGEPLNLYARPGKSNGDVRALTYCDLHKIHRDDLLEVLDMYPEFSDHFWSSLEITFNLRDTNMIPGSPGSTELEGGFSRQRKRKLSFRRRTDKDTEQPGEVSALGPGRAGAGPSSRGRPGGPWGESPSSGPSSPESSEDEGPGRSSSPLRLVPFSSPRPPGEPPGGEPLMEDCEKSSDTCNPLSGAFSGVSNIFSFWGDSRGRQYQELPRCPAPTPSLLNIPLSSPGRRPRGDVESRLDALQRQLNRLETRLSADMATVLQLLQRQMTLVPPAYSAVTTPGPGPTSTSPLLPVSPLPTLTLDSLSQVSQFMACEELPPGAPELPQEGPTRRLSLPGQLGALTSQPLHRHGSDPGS
Data set [3] addresses DNA-PK phosphorylation at serine 2056 (Homo sapiens (Human), UniProt P78527). In words: DNA-PK phosphorylation at serine 2056 (cellular), bleomycin-treated HCT116 cells, ELISA. It is filed as cell-based. The conditions noted are these: cellular DNA-PK phosphorylation at serine 2056, HCT116; read-out: IC50 pDNA-PK. In a few lines:
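HCT116 cells were treated with 10 μM bleomycin plus test compounds for six hours at 37 °C. Phospho-Ser2056 DNA-PK measured by chemiluminescent ELISA, normalised to total DNA-PKcs signal; DMSO control as blank.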
A general note: An ELISA detects its analyte on a solid surface through an enzyme-linked reagent.

The target of data set [4] is T2, Kv11.1 (hERG). In words: Kv11.1 ion channel binding assay (Predictor hERG fluorescence polarisation). The conditions noted are these: cells marked *: measured using hERG binding assay instead of hERG patch clamp assay; read-out: Ki [Kv1.11 hERG]. As for the experimental part: D) Kv11.1 Ion Channel Binding Assay
Kv11.1 (hERG=human ether a go-go related […]) is a cardiac K^+ channel which should if possible not interact with the test substances. This interaction is determined quantitatively with the aid of the Predictor™ hERG Fluorescence Polarizations (FP) Assays from Life Technologies. In the case of this assay principle, cardiomyocyte cell membranes having a certain proportion of Kv11.1 channels are isolated. A dye-labelled Kv11.1 binding partner gives a high fluorescence polarisation signal by interaction with the Kv11.1. In the case of displacement of the dye, a reduction in the fluorescence polarisation signal occurs.
The assay is carried out automatically as follows: 15 nl of the test substances (highest concentration: 10 mM, 10 concentrations: dilution factors 1:3.16, DMSO) are transferred into an empty microtitre plates having 384 wells by means of an acoustic pipetter. 3 μl of the isolated membranes are subsequently added. Membranes and test substances are incubated at 22° C. for 15 min (+/−5 min). In the next step, the dye-labelled binding partner is added, followed by incubation at 22° C. After incubation for two hours, the measurement of the fluorescence polarisation is carried out on an Envision multimode Reader. Measured raw data are standardised with the aid of Genedata Assay Analyzer. The 1050 and % effect values are calculated in Genedata Condoseo.

Data set [5] deals with kinases of the PI3K isoenzyme family. The conditions noted are these: cited from earlier work.
The target in data set [6] is T1, DNA-PK. The settings on record: ATP-competitive; Hardcastle et al. (2005); cited from earlier work.

`O=c1ccc(C(O)c2ccc(F)c(-c3ncnc4cc(N5C6CCC5COC6)ccc34)c2)n[nH]1` (stereo not shown) [Example 75, 6-({4-Fluoro-3-[7-(3-oxa-8-aza-bicyclo-[3.2.1]oct-8-yl)-quinazolin-4-yl]phenyl}-hydroxymethyl)-2H-pyridazin-3-one]: the IC50 in data set [1] (enzymatic, 5 μM ATP) is over 0.03 µM. For the same molecule, in data set [2], the Ki was over 25 µM.

In the case of `Cc1nccnc1C(C(N)=O)c1cc(-c2ncnc3cc(N4CCOCC4)sc23)c(F)cc1Cl` (stereo not shown) [Example 269, 2-[2-Chloro-4-fluoro-5-(6-morpholin-4-yl-thieno[3,2-d}-pyrimidin-4-yl)-phenyl]-2-(3-methyl-pyrazin-2-yl)-acetamide], the IC50 in data set [1] (biochemical DNA-PK assay) lay within 0.003 to 0.007 µM; in data set [3] it was 0.5 to 5 µM. The Ki in data set [4] was over 25 µM.

On to `Cc1nccnc1C(C(N)=O)c1ccc(F)c(-c2ncnc3cc(N4CCOCC4)sc23)c1` (stereo not shown) [Example 270, 2-[4-Fluoro-3-(6-morpholin-4-yl-thieno[3,2-d}-pyrimidin-4-yl)-phenyl]-2-(3-methyl-pyrazin-2-yl)-acetamide], for which the IC50 in data set [1] (biochemical DNA-PK assay) is 0.003 to 0.007 µM; in data set [3], 5 to 10 µM. For the same molecule, the Ki in data set [4] is over 25 µM.

Take `COc1ccc(C(C(N)=O)c2cc(-c3ncnc4cc(N5CCOCC5)sc34)c(F)cc2Cl)nn1` (stereo not shown) [Example 272, 2-[2-Chloro-4-fluoro-5-(6-morpholin-4-yl-thieno[3,2-d}-pyrimidin-4-yl)-phenyl]-2-(6-methoxy-pyridazin-3-yl)acetamide]: the results for the IC50 in data set [1] (biochemical DNA-PK assay) and in data set [3] were 0.003 to 0.007 µM and 0.5 to 5 µM, respectively. Further, the Ki in data set [4] was over 25 µM.

For the molecule `COc1ccc(C(O)c2cc(-c3ncnc4cc(N5CCOCC5)cc(F)c34)c(F)cc2Cl)nn1` (stereo not shown) [Example 278, [2-chloro-4-fluoro-5-(5-fluoro-7-morpholin-4-ylquinazolin-4-yl)phenyl]-(6-methoxypyridazin-3-yl)methanol], the values for the IC50 in data set [1] (biochemical DNA-PK assay) and in data set [3] were under 0.003 µM and under 0.5 µM, respectively. In addition, the Ki in data set [4] was over 25 µM.

`OC(c1ccc(F)c(-c2ncnc3cc(N4CCOCC4)ccc23)c1)c1nccn2ncnc12` (stereo not shown) [Example 279, [4-Fluoro-3-(7-morpholin-4-yl-quinazolin-4-yl)-phenyl]-[1,2,4]-triazolo[1,5-a]-pyrazin-8-ylmethanol]: the IC50 was 0.003 to 0.007 µM in data set [1] (biochemical DNA-PK assay) and 5 to 10 µM in data set [3]. Further, the Ki in data set [4] is over 25 µM.

Consider `NC(=O)C(c1ccc(F)c(-c2ncnc3cc(N4CCOCC4)ccc23)c1)c1nccn2ncnc12` (stereo not shown) [Example 280, 2-[4-Fluoro-3-(7-morpholin-4-yl-quinazolin-4-yl)-phenyl]-2-[1,2,4]-triazolo[1,5-a]-pyrazin-8-yl-acetamide], for which the IC50 in data set [1] (biochemical DNA-PK assay) lay within 0.007 to 0.03 µM; in data set [3] it was 10 to 30 µM. Also, the Ki in data set [4] was over 25 µM.

For the molecule `COc1ccc(C(O)c2ccc(F)c(-c3ncnc4cc(N5CCOCC5)c(F)cc34)c2)nn1` (stereo not shown) [Example 282, [4-Fluoro-3-(6-fluoro-7-morpholin-4-yl-quinazolin-4-yl)-phenyl]-(6-methoxy-pyridazin-3-yl)-methanol], the IC50 in data set [1] (biochemical DNA-PK assay) is over 0.03 µM; in data set [3], 10 to 30 µM. In addition, the Ki in data set [4] was over 25 µM.

Consider `NC(=O)C(c1ccc(F)c(-c2ncnc3cc(N4CCOCC4)ccc23)c1)c1nncc2ccsc12` (stereo not shown) [Example 284, 2-[4-Fluoro-3-(7-morpholin-4-yl-quinazolin-4-yl)-phenyl]-2-thieno-[2,3-d}pyridazin-7-yl-acetamide], for which the IC50 in data set [1] (biochemical DNA-PK assay) fell in the range of 0.003 to 0.007 µM; in data set [3], 10 to 30 µM. Further, in data set [4], the Ki is over 25 µM.

In the case of `COc1nnc(Cl)cc1C(O)c1ccc(F)c(-c2ncnc3cc(N4CCOCC4)ccc23)c1` (stereo not shown) [Example 286, (6-Chloro-3-methoxy-pyridazin-4-yl)-[4-fluoro-3-(7-morpholin-4-yl-quinazolin-4-yl)-phenyl]methanol], the IC50 in data set [1] (biochemical DNA-PK assay) lay within 0.007 to 0.03 µM; in data set [3] it was 5 to 10 µM. For the same molecule, the Ki in data set [4] was over 25 µM.

For the molecule `CN1N=C(C(O)c2cc(-c3ncnc4cc(N5CCOCC5)ccc34)c(F)cc2Cl)CCC1=O` (stereo not shown) [Example 288, 6-{[2-Chloro-4-fluoro-5-(7-morpholin-4-yl-quinazolin-4-yl)-phenyl]hydroxy-methyl}-2-methyl-4,5-dihydro-2H-pyridazin-3-one], the IC50 in data set [1] (biochemical DNA-PK assay) is 0.007 to 0.03 µM; in data set [3] it was 5 to 10 µM. Further, the Ki in data set [4] was over 25 µM.

Consider `OC(c1ccc(F)c(-c2ncnc3cc(N4CCOCC4)ccc23)c1)c1ncnc2ccoc12` (stereo not shown) [Example 443, [4-fluoro-3-(7-morpholin-4-yl-quinazolin-4-yl)-phenyl]furo[3,2-d}-pyrimidin-4-yl-methanol], for which the half-maximal inhibitory concentration (IC50) in data set [1] (biochemical DNA-PK assay) lay in the range of 0.003 to 0.007 µM; in data set [3], 0.5 to 5 µM. In addition, the Ki in data set [4] was over 25 µM.

`COc1ccc(C(O)c2cc(-c3ncnc4cc(N5CCOCC5)ccc34)ccc2Cl)nn1` (stereo not shown) [Example 459, [2-Chloro-5-(7-morpholin-4-yl-quinazolin-4-yl)-phenyl]-(6-methoxy-pyridazin-3-yl)-methanol]: the IC50 in data set [1] (biochemical DNA-PK assay) lay within 0.003 to 0.007 µM; in data set [3] it was 0.5 to 5 µM. Besides, the Ki in data set [4] was over 25 µM.

`COc1ccc(C(O)c2cc(-c3ncnc4cc(N5CCOCC5)ccc34)ccc2Cl)nn1` (stereo not shown) [Example 460, [2-Chloro-5-(7-morpholin-4-yl-quinazolin-4-yl)-phenyl]-(6-methoxy-pyridazin-3-yl)-methanol]: the IC50 in data set [1] (biochemical DNA-PK assay) was 0.003 to 0.007 µM; in data set [3], under 0.5 µM. Also, in data set [4], the Ki is over 25 µM.

For the molecule `Cn1cnc2ccnc(C(O)c3ccc(F)c(-c4ncnc5cc(N6CCOCC6)ccc45)c3)c21` (stereo not shown) [Example 461, [4-Fluoro-3-(7-morpholin-4-yl-quinazolin-4-yl)-phenyl]-(3-methyl-3H-imidazo[4,5-c]-pyridin-4-yl)methanol], the IC50 in data set [1] (biochemical DNA-PK assay) is under 0.003 µM; in data set [3], under 0.5 µM. The Ki in data set [4] was over 25 µM.

For the molecule `OC(c1ccc(F)c(-c2ncnc3cc(N4CCOCC4)ccc23)c1)c1ncnc2ccoc12` (stereo not shown) [Example 471, [4-Fluoro-3-(7-morpholin-4-yl-quinazolin-4-yl)-phenyl]furo[3,2-d}-pyrimidin-4-yl-methanol], the results for the IC50 in data set [1] (biochemical DNA-PK assay) and in data set [3] were under 0.003 µM and under 0.5 µM, respectively. Also, the Ki in data set [4] was over 25 µM.

In the case of `CCN1CCN(CC(=O)Nc2ccc(-c3cccc4c(=O)cc(N5CCOCC5)oc34)c3sc4ccccc4c23)CC1` [KU-0060648], the “inhibition of kinases of the PI3K isoenzyme family” value in data set [5] is “potently inhibited”.

Turning to `O=c1cc(N2CCOCC2)oc2c(-c3cccc4c3sc3ccccc34)cccc12` [NU-7441], the IC50 in data set [6] was 0.02 µM.

The values are drawn from patent publication US9732094B2, “Arylquinazolines” (Merck Patent GmbH, priority 2013, dated 2017).
